System: collagenase produced by Clostridium Histolyticum
Test: Inhibition of collagenase activity (DQ-gelatin fluorescence)
Format: biochemical
Conditions: decrease in collagenase activity relative to the control
Method: The effect of an extract of wild yam on the inhibition of the activity of collagenase produced by Clostridium Histolyticum was evaluated. Although different from a human enzyme, this collagenase is used on account of its ability to digest human collagen. […]
The control consisted of collagenase without test product. Thus, the activity of the control constitutes 100% collagenase activity and thus 0% inhibition of the said activity.
The products were preincubated with the enzyme for 10 minutes at room temperature, and DQ-gelatin was then added and the fluorescence obtained on degradation of the substrate was recorded for 10 minutes (excitation 480 nm; emission 538 nm) on a SpectraMax spectrofluorimetre (Molecular Devices); the results were processed using Soft Max Pro software.
The percentages indicated represent the decrease in collagenase activity relative to the control.

c1cnc2c(c1)ccc1cccnc12 [Phenanthroline, phenanthroline]
% inhibition (n = 4) (0.1 mM in ethanol): 96% | % inhibition (n = 4) (0.25 mM in ethanol): 40% | % inhibition (n = 4) (0.5 mM in ethanol): 65%

— US20030152597A1, “Use of at least one sapogenin for prevening the skin or ageing symptoms” (priority 2000, published 2003)
